Data: US20230105212A1, “BIPHENYL DERIVATIVE INHIBITOR, PREPARATION METHOD THEREFOR AND USE THEREOF” (SHANGHAI HANSOH BIOMEDICAL CO., LTD., priority 2020, published 2023)
pIC50: −log10 of the molar value.

Tests used:
[1] = system: NFAT-luc2/PD1 Jurkat cells; assay: In vitro cytotoxicity on NFAT-luc2/PD1 Jurkat cells (CellTiter-Glo); type: cell-based; details: 72 hours; for pIC50: Homo sapiens, Jurkat
Method: Test Embodiment 5. In Vitro Cytotoxicity of the Compounds of the Present Disclosure on NFAT-Luc2/PD1 Jurkat Cells and MC38-hPDL1 Cells
Experimental purpose: To test the in vitro cytotoxicity of compounds on NFAT-luc2/PD1 Jurkat cells and MC38-hPDL1 cells.
When the cells were cultured to an appropriate degree of confluency, the cells were collected, and the cells was adjusted in an appropriate cell concentration by complete medium, then the cell suspension was plated in a 96-well plate, 90 μL per well, and put in a 37° C., 5% CO2 incubator overnight; compound solutions of different concentrations were prepared by DMSO and medium, and a vehicle control was set; compound solutions were added to a 96-well plate, 10 μL per well, and put in a 37° C., 5% CO2 incubator and cultured for 72 hours. After that, CellTiter-Glo solution was added, the mixture was shaken and mixed evenly, incubated in the dark for 10 minutes, and a BioTek Synergy H1 microplate reader was used for reading.
Luminescence signal value was used to calculate the inhibition rate, and the concentration and inhibition rate were fitted by nonlinear regression curve using Graphpad Prism software to obtain IC50 values, as shown in the following table: […]

[2] = system: C57 mice subcutaneous xenografts tumor of MC38-hPDL1 cells; assay: Tumor inhibition experiment on MC38-hPDL1 xenograft model; type: in vivo
Method: Test Embodiment 10. Tumor Inhibition Experiment on MC38-hPDL1 Xenograft Model
To evaluate the antitumor activity of the test compounds against C57 mice subcutaneous xenografts tumor of MC38-hPDL1 cells.
MC38-hPDL1 cells were taken out from the cell bank, added to DMEM medium (DMEM+10% FBS) after recovery, and placed in a CO2 incubator (incubator temperature was 37° C., CO2 concentration was 5%) to culture. MC38-hPDL1 cells were collected when the number of cells increased to the required number of inoculation in vivo. Counted with an automatic cell counter, and resuspend the cells with PBS according to the counting results to prepare a cell suspension (density was 1×10^6/mL), and placed in an ice box for use.
6-8-week-old female C57 mice weighing approximately 18-22 grams were used. Mice were housed in SPF animal room, single cage, 4-5 mice per cage. All cages, litter and water were sterilized at high temperature before use, and all animals had free access to food and water. Before the start of the experiment, C57 mice were marked with a disposable ear tag for rats and mice, and the skin of the inoculation site was disinfected with 75% alcohol before inoculation. Each mouse was subcutaneously inoculated with 0.1 mL (containing 1*10^5 cells) of MC38-hPDL1 cells on the right back. […] […] Tumor volume was measured twice a week and mice were weighed twice a week, and tumor TGI (%) was calculated.
Tumor volume (mm^3), the calculation formula was: V=0.5*D*d*d, wherein D and d were the long and short diameters of the tumor, respectively.
When the tumor regressed, TGI(%)=[1−(average tumor volume at the end of administration of a treatment group-average tumor volume at the beginning of administration of this treatment group)/average tumor volume at the beginning of administration of this treatment group]×100%.

[3] = Pharmacokinetic test of plasma and tumor of tumor-bearing nude mice; type: in vivo; details: tumor-bearing nude mice, p.o. 30 mg/kg; for Kp: female, mouse, tumor/plasma, po, read-out: Tumor plasma ratio
Method: Test Embodiment 7. Pharmacokinetic Test of Plasma and Tumor of Tumor-Bearing Nude Mice
Taking tumor-bearing nude mice as the test animals, the pharmacokinetic behavior in the plasma and tumor of tumor-bearing nude mice of the following compound embodiments was studied when orally administered at a dose of 30 mg/kg.
Tumor-bearing nude mouse 21/embodiment, female, Shanghai B&K Laboratory Animal Co., Ltd., animal production license number (SCXK (Shanghai) 2013-0006 No. 311620400001794).
0.5% HPMC (1% Tween 80), dissolved by sonication, to prepare a clear solution or a homogeneous suspension.
Tumor-bearing nude mice, female; p.o. after overnight fasting, respectively, at a dose of 30 mg/kg, administered in a volume of 10 mL/kg.
Before and after administration of tumor-bearing nude mice, at 0, 1, 2, 4, 6, 8, 16 and 24 hours, 0.1 mL of blood was collected from the orbit, placed in an EDTA-K2 test tube, and centrifuged at 6000 rpm at 4° C. for 6 min to separate the plasma. After dissection, the tumor tissue was weighed and stored at −80° C.
1) Tumor tissue was homogenized with methanol and water at a ratio of 1:3, and then centrifuged to get the supernatant. 40 μL of tumor homogenate supernatant and 40 μL of plasma sample were added to 160 μL of acetonitrile for precipitation, and after mixing, centrifuged at 3500×g for 5 to 20 minutes.
2) 100 μL of the supernatant solution after treatment was taken for LC/MS/MS to analyze the concentration of the compounds to be tested.
2.7 Liquid Phase Analysis • Liquid phase condition: Shimadzu LC-20AD pump • MS conditions: AB Sciex API 4000 Mass Spectrometer • Chromatographic column: phenomenex Gemiu 5 μm C18 50×4.6 mm • Mobile phase: A solution was aqueous 0.1% formic acid solution, B solution was acetonitrile • Flow rate: 0.8 mL/min • Elution time: 0 to 4.0 minutes, the eluent was as follows:
The main parameters of pharmacokinetics were calculated with WinNonlin 8.2, and the results of the tumor-bearing nude mice pharmacokinetic experiments were shown in the following table: […]

Kp [3] | Drug concentration in plasma [3] | Drug concentration in tumor [3] | Structure (SMILES) | Jurkat-PD1 inhibition rate (%) [1] | pIC50 [1] | other results
2.4 | 291 ng/mL | 697 ng/mL | COc1nc(-c2cccc(-c3cccc(NC(=O)c4nc5c(n4C)CCN(C)C5)c3Cl)c2Cl)ccc1CNC(CO)CO [Embodiment 174, N-(2,2′-Dichloro-3′-(5-(((1,3-dihydroxypropan-2-yl)amino)methyl)-6-methoxypyridin-2-yl)-[1,1′-biphenyl]-3-yl)-1,5-dimethyl-4,5,6,7-tetrahydro-1H-imidazo[4,5-c]pyridine-2-carboxamide] |  |  | 
2.1 | 485 ng/mL | 1009 ng/mL | COc1nc(-c2cccc(-c3cccc(NC(=O)c4nc5c(n4C)CCN(C)C5)c3Cl)c2Cl)ccc1CN[C@H]1CCOC[C@@H]1O (relative stereo) [Embodiment 175, N-(2,2′-Dichloro-3′-(5-((((3,4-trans)-3-hydroxytetrahydro-2H-pyran-4-yl)amino)methyl)-6-methoxypyridin-2-yl)-[1,1′-biphenyl]-3-yl)-1,5-dimethyl-4,5,6,7-tetrahydro-1H-imidazo[4,5-c]pyridine-2-carboxamide] |  |  | 
3.5 | 432 ng/mL | 1504 ng/mL | COc1nc(-c2cccc(-c3cccc(NC(=O)c4nc5c(n4C)CCN(C)C5)c3Cl)c2Cl)ncc1CN1CC(CO)C1 [Embodiment 223, N-(2,2′-Dichloro-3′-(5-((3-(hydroxymethyl)azetidin-1-yl)methyl)-4-methoxypyrimidin-2-yl)-[1,1′-biphenyl]-3-yl)-1,5-dimethyl-4,5,6,7-tetrahydro-1H-imidazo[4,5-c]pyridine-2-carboxamide] | 77% | 5.32 | 
2.2 | 291 ng/mL | 628 ng/mL | COc1nc(-c2cccc(-c3cccc(NC(=O)c4nc5c(n4C)CCN(C)C5)c3Cl)c2Cl)ccc1CN1CC(O)(CO)C1 [Embodiment 173, N-(2,2′-Dichloro-3′-(5-((3-hydroxy-3-(hydroxymethyl)azetidin-1-yl)methyl)-6-methoxypyridin-2-yl)-[1,1-biphenyl]-3-yl)-1,5-dimethyl-4,5,6,7-tetrahydro-1H-imidazo[4,5-c]pyridine-2-carboxamide] |  |  | 
2.3 | 309 ng/mL | 697 ng/mL | COc1nc(-c2cccc(-c3cccc(NC(=O)c4nc5c(n4C)CCN(C)C5)c3Cl)c2Cl)ccc1CN1CC(C(=O)N(C)C)C1 [Embodiment 183, N-(2,2′-Dichloro-3′-(5-((3-(dimethylcarbamoyl)azetidin-1-yl)methyl)-6-methoxypyridin-2-yl)-[1,1′-biphenyl]-3-yl)-1,5-dimethyl-4,5,6,7-tetrahydro-1H-imidazo[4,5-c]pyridine-2-carboxamide] | 71% | 5.24 | 

The next lines start with the compound.

Structure (SMILES) | Kp [3] | Drug concentration in plasma [3] | Drug concentration in tumor [3] | Jurkat-PD1 inhibition rate (%) [1] | pIC50 [1] | other results
COc1nc(-c2cccc(-c3cccc(NC(=O)c4nc5c(n4C)CCN(C)C5)c3Cl)c2Cl)ncc1CN1CC(CNC(C)=O)C1 [Embodiment 225, N-(3′-(5-((3-(Acetylaminomethyl)azetidin-1-yl)methyl)-4-methoxypyrimidin-2-yl)-2,2′-dichloro-[1,1′-biphenyl]-3-yl)-1,5-dimethyl-4,5,6,7-tetrahydro-1H-imidazo[4,5-c]pyridine-2-carboxamide] |  |  |  | 51% | 5.04 | 
COc1nc(-c2cccc(-c3cccc(NC(=O)c4nc5c(n4C)CCN(C)C5)c3Cl)c2Cl)ccc1CN1CC2(C1)CN(C(C)=O)C2 [Embodiment 123, N-(3′-(5-((6-Acetyl-2,6-diazaspiro[3.3]heptan-2-yl)methyl)-6-methoxypyridin-2-yl)-2,2′-dichloro-[1,1′-biphenyl]-3-yl)-1,5-dimethyl-4,5,6,7-tetrahydro-1H-imidazo[4,5-c]pyridine-2-carboxamide] | 2.8 | 821 ng/mL | 2285 ng/mL |  |  | TGI (%) Day 15 ([2]; 10 mpk po bid, n=8): 63.70%; Tumor volume (mm^3, Mean ± SD) Day 1 ([2]; 10 mpk po bid, n=8): 75.93 ± 26.17 mm^3; Tumor volume (mm^3, Mean ± SD) Day 14 ([2]; 10 mpk po bid, n=8): 644.86 ± 398.92 mm^3; ΔT/ΔC (%) Day 15 ([2]; 10 mpk po bid, n=8): 36.30%; TGI (%) Day 15 ([2]; 30 mpk po qd, n=8): 67.62%; Tumor volume (mm^3, Mean ± SD) Day 1 ([2]; 30 mpk po qd, n=8): 75.50 ± 25.70 mm^3; Tumor volume (mm^3, Mean ± SD) Day 14 ([2]; 30 mpk po qd, n=8): 582.87 ± 359.11 mm^3; ΔT/ΔC (%) Day 15 ([2]; 30 mpk po qd, n=8): 32.38%
COc1nc(-c2cccc(-c3cccc(NC(=O)c4nc5c(n4C)CCN(C)C5)c3Cl)c2Cl)ccc1CNC1COC1 [Embodiment 114, N-(2,2′-Dichloro-3′-(6-methoxy-5-((oxetan-3-ylamino)methyl)pyridin-2-yl)-[1,1′-biphenyl]-3-yl)-1,5-dimethyl-4,5,6,7-tetrahydro-1H-imidazo[4,5-c]pyridine-2-carboxamide] |  |  |  | 69.0%^ | 5.12 | TGI (%) Day 15 ([2]; 60 mpk po bid, n=7): 74.92%; Tumor volume (mm^3, Mean ± SD) Day 1 ([2]; 60 mpk po bid, n=7): 69.72 ± 21.92 mm^3; Tumor volume (mm^3, Mean ± SD) Day 14 ([2]; 60 mpk po bid, n=7): 140.27 ± 77.92 mm^3; ΔT/ΔC (%) Day 15 ([2]; 60 mpk po bid, n=7): 25.08%
COc1nc(-c2cccc(-c3cccc(NC(=O)c4nc5c(n4C)CCN(C)C5)c3Cl)c2Cl)cnc1CN1CC2(C1)CN(C(C)=O)C2 [Embodiment 152, N-(3′-(5-((6-Acetyl-2,6-diazaspiro[3.3]heptan-2-yl)methyl)-6-methoxypyrazin-2-yl)-2,2′-dichloro-[1,1′-biphenyl]-3-yl)-1,5-dimethyl-4,5,6,7-tetrahydro-1H-imidazo[4,5-c]pyridine-2-carboxamide] | 4.6 | 153 ng/mL | 707 ng/mL | 97% | 5.35 | 
COc1nc(-c2cccc(-c3cccc(NC(=O)c4nc5c(n4C)CCN(C)C5)c3Cl)c2Cl)cnc1CN1CC(NC(C)=O)C1 [Embodiment 218, N-(3′-(5-((3-Acetylaminoazetidin-1-yl)methyl)-6-methoxypyrazin-2-yl)-2,2′-dichloro-[1,1′-biphenyl]-3-yl)-1,5-dimethyl-4,5,6,7-tetrahydro-1H-imidazo[4,5-c]pyridine-2-carboxamide] |  |  |  | 85% | 5.36 | 
